How the values were obtained:
Cytotoxicity = format: cell-based
[1] = target: T1, Nav1.5 voltage-gated sodium channels (Homo sapiens, UniProt Q14524); test: Whole-cell patch-clamp, repeated depolarisation protocol, MDA-MB-231 cells; format: cell-based
T1 construct: said cells express, inter alia, functional Nav1.5 voltage-gated sodium channels; endogenous in cells; host or cells: MDA-MB-231
From the text: Merely as an illustration, the inventors chose to use the MDA-MB-231 line, which is a highly metastatic human mammary adenocarcinoma line, in the experiment. […] However, the pharmacological tools in question are not suitable for precise characterisation of the nature of the Nav1.5 sodium current involved in the metastatic process. […] For this reason, the inventors consider that 3-(R)-[3-(2-methoxyphenylthio)-2-(S)-methyl-propyl]amino-3,4-dihydro-2H-1,5-benzoxathiepine has anti-metastatic properties in relation to cancer cells expressing the Nav1.5 channel. As such, it is important to note that numerous types of metastatic cancer have been reported as expressing the Nav1.5 channel.
Cell culture: the MDA-MB-231 cells are cultured in a Dulbecco's modified Eagle's medium, (Life Technologies LTD, Paisley, UK) supplemented with 4 mM L-glutamine and 10% foetal calf serum. The cells are inoculated in 100 mm culture dishes and placed in an incubator at 37° C., 100% moisture and 5% CO2.
Electrophysiological measurements in “whole cell” configuration: the patch pipette (resistance 5-15 MΩ) contains a solution of: 5 mM NaCl, 145 mM CsCl, 2 mM MgCl2, 1 mM CaCl2, 10 mM HEPES and 11 mM EGTA, the pH is adjusted to 7.4 with CsOH. The reference electrode is immersed in the extracellular medium consisting of a solution of: 140 mM NaCl, 4 mM KCl, 2 mM MgCl2, 11 mM glucose, 10 mM HEPES, the pH is adjusted to 7.4 with NaOH. These two electrodes are connected to an Axopatch 200B amplifier (Axon Instrument). The currents are filtered using a Bessel filter at a frequency of 5 kHz and are sampled at a frequency of 5 kHz using the Digidata interface (1200). The data acquisition and analysis are performed using pClamp software (Axon Instrument). The holding potential is set to −110 mV to record the maximum Nav channel activity.
Two protocols were used: • 1/ “Voltage-dependent current INa” protocol for observing the maximum amplitude of INa according to the voltage applied. Depolarisations in 5 mV stages are performed at a frequency of 0.2 Hz, from −110 to +60 mV. […]

[2] = In vivo effect on normal cardiac function; settings: even at high doses

T1 sequence (Q14524 1-2016 isoform Q14524-4): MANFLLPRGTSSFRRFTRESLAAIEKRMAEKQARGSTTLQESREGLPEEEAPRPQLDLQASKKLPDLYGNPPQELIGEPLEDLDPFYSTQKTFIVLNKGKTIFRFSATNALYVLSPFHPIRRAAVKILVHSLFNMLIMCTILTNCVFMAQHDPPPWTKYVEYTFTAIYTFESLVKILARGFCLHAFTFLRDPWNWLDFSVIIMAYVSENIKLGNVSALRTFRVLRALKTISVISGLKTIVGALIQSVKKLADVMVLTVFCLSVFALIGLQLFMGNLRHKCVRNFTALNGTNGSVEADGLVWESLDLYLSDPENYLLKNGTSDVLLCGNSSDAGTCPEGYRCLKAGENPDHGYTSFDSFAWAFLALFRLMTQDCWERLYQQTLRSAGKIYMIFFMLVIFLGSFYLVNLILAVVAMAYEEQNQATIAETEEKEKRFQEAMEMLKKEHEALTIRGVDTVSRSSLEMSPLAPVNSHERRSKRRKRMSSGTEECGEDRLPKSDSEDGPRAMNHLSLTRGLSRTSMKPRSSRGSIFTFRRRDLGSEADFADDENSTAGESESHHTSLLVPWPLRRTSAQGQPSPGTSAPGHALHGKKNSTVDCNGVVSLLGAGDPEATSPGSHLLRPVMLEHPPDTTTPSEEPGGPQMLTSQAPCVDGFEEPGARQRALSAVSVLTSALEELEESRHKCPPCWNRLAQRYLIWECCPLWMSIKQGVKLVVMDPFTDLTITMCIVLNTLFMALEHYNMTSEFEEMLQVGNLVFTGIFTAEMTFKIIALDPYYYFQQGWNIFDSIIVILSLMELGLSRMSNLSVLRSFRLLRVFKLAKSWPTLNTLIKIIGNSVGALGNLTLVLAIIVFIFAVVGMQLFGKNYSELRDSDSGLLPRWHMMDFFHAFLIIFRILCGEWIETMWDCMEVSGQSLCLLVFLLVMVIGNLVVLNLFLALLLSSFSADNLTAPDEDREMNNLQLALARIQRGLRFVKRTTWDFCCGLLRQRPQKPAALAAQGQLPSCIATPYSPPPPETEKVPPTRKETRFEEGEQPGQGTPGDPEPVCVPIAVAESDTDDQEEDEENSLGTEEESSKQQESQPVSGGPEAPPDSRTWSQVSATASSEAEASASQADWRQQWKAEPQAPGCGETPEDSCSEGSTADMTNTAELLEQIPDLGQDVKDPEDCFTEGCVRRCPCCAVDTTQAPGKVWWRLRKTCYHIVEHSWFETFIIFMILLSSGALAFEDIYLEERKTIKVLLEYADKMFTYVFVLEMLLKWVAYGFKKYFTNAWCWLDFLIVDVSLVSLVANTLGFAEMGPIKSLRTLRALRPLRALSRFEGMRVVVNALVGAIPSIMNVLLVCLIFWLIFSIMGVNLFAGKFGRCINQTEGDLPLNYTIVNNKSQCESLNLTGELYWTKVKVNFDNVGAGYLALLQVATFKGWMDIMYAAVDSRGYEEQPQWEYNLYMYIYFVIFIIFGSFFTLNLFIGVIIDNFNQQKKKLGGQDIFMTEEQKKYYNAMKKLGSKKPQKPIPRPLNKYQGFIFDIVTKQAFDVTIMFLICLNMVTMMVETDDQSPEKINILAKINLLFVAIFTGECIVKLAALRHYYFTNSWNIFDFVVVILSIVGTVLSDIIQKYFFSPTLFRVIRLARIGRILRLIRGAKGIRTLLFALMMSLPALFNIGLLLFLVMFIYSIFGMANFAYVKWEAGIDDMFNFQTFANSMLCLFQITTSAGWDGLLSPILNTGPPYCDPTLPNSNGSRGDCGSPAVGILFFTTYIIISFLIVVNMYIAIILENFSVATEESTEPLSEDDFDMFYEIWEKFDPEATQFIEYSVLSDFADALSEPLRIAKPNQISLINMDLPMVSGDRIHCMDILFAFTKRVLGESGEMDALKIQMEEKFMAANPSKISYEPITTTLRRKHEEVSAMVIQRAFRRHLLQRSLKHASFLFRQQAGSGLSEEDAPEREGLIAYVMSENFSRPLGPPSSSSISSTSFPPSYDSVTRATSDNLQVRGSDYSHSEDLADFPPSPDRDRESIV

COc1ccccc1SC[C@@H](C)CN[C@@H]1COc2ccccc2SC1 [3-(R)-[3-(2-methoxyphenylthio)-2-(S)-methyl-propyl]amino-3,4-dihydro-2H-1,5-benzoxathiepine]
cytotoxicity (Cytotoxicity): not cytotoxic
IC50 ([1]; MDA-MB-231 cells, whole cell patch-clamp, concentration-dependent, read-out: reduction of the metastatic Nav1.5 current (IC50)): 1500 nM
interference with normal cardiac function [2]: does not interfere with normal cardiac function

NC1=N[C@H](O)[C@H]2[C@H]3O[C@]4(O)O[C@@H]([C@@H](O)[C@@]2(N1)[C@@H]4O)[C@]3(O)CO [tetrodotoxin]
peak current inhibition ([1]; 1 µM): 30±7%
peak current inhibition ([1]; 5 µM): 54±8%

From patent publication US9603835B2, “Use of 3-(R)-[3-(2-methoxyphenylthio)-2-(S)-methylpropyl]amino-3,4-dihydro-2H-1,5-benzoxathiepine for treating cancer and in particular for preventing and/or treating cancer metastases” (PIERRE FABRE MEDICAMENT, priority 2011, dated 2017)
